One test concerns NF-κB signaling pathway. Briefly: NF-κB luciferase reporter assay in 293T cells. The settings on record: TNF-α 10 ng/mL, 6 h, SIAIS361034 10 μM, BAY 11-7082 20 μM. The test is classed as cell-based. On the procedure: Cells seeded in 96-well plates were treated with various treatments as indicated. The luciferase activity in the cell lysates was measured using Dual-Luciferase Reporter Assay System (Promega, Madison, WI, USA) according to the manufacturer's instructions in a luminometer (Molecular Devices, Sunnyvale, CA). The firefly luciferase values were normalized to Renilla values. […]
Data represent mean ± SD (n = 3). (B) NF-κB luciferase analysis of the effect of SIAIS361034 on NF-κB signaling pathway in 293T cells.The 293T cells were transfected with NF-κB luciferase reporter and Renilla-TK plasmids and […]
μM) for 6 h. Data represent mean ± SD (n = 3). […]
Data represent mean ± SD (n = 3).
(1 picture or pasted object on this page, not shown here)
On the technique in general: Reporter assays use an easily measured gene product as a stand-in for the process of interest.

The target of another test is T1, Bcl-xL/CRBN (Homo sapiens, UniProt Q07817+Q96SW2).
T1 construct: purchased Cisbio 63ADK000CB37PEG
T1 sequence (Q07817 whole entry, species assumed): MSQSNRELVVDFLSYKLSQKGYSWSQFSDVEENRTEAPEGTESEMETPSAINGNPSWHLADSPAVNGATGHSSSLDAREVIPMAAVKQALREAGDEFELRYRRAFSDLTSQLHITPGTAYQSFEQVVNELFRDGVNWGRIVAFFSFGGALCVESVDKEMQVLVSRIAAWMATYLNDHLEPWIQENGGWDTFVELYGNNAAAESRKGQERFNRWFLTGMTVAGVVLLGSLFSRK
T1 sequence (Q96SW2 whole entry, species assumed): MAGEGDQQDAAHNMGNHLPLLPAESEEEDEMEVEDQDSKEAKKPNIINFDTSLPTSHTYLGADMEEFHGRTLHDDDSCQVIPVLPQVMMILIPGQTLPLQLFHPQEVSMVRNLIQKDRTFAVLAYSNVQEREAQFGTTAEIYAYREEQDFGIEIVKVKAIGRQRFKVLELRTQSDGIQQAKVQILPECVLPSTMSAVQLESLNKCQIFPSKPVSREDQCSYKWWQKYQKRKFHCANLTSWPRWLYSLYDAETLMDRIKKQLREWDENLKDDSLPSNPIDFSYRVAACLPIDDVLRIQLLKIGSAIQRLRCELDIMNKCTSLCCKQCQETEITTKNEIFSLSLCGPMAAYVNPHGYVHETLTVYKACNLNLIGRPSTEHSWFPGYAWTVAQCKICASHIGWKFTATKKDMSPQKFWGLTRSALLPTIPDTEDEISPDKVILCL
The test can be described thus: HTRF assay for ternary complex formation. The test is classed as binding. The method, then: Bcl-xL/CRBN ternary HTRF assay was used to monitor ternary complex formation between target protein, PROTAC and E3 ligase. Bcl-xL/CRBN PROTAC BINDING ASSAY KITS was purchased from Cisbio (#63ADK000CB37PEG). 200 nL compounds were transferred into 384 assay plate, followed by centrifuging at 1000 RPM. Then 5 µL Bcl-xL and CRBN protein were added into each assay well. After incubation at 25 °C for 15 min, 10 µL Tag2-Eu&Tag1-d2 working solution was added into each assay well and incubated 25 °C for 120 min. The Relative HTRF value was read with BMG (PHERAstar FSX).

Test [1] relates to hair growth and Hh pathway activity in skin. The test can be described thus: Depilatory mouse model. The format is in vivo. On the procedure: For Depilatory model studies, male C57BL/6J mice (7 to 8 weeks of age) were purchased from Shanghai Lingchang Biotechnology Co. (Shanghai, China). After 2 days of acclimation, only healthy mice were used in the experiment. The back skin of the anesthetized mice was shaved and depilated using the depilatory Nair (Church & Dwight Co., Inc.). After 4 days, the depilated mice were randomized into groups for treatments as indicated. The back skin phenotypes were recorded by taking pictures every 3 days. Skin tissues were harvested 6 h after the last dosage to examining Gli1 mRNA expression as well as Gli1 and Bcl-xL protein levels.

In a further test the test system is Bcl-2 and Mcl-1. The test can be described thus: Western blot of Bcl-2 and Mcl-1 in NIH-3T3 cells. The test is classed as cell-based. The settings on record: 1 µM. The method, then:
(§1) Cells were lysed in cell lysis buffer (50 mM Tris pH 8.0, 150 mM NaCl, 10% glycerol, 1 mM EDTA, 50 mM NaF, and 0.1% NP-40) supplemented with protease and phosphatase inhibitors. Total protein extracts of tissues were generated in radioimmunoprecipitation (RIPA) assay lysis buffer containing complete protease and phosphatase inhibitor cocktail. Protein content was quantified using the Pierce BCA Protein Assay Kit (#23225, Thermo Fisher Scientific). The proteins were separated by SDS-PAGE, electrophoretically transferred to polyvinylidene difluoride (PVDF) blotting membranes (#LC2002, Thermo Fisher Scientific), and subjected to routine immunoblot analysis with primary antibodies as follows: anti-Bcl-2 (#15071), anti-Mcl-1 (#94296), anti-VHL (#68547), anti-CRBN (#71810), and anti-Sufu (#2522) were obtained from Cell Signaling Technology (Danvers, Massachusetts, USA); anti-Bcl-xL (#ab32370), anti-Gli1 (#ab134906), and anti-Smoothened (#ab236465) were obtained from Abcam (Cambridge, CB2 0AX, UK); anti-GAPDH (#60004-1-Ig) and anti-β-tubulin (#10094-1-AP) were purchased from Proteintech Group, Inc. (Rosemont, IL 60018, USA). The results were quantified by densitometry using ImageJ software (NIH).

A further test concerns the target T2, Bcl-xL (Mus musculus, UniProt Q64373).
T2 construct: endogenous in cells; host or cells: NIH-3T3
The test can be described thus: Western blot of Bcl-xL degradation in NIH-3T3 cells. The test is classed as cell-based. The method, then: as §1
(Immunoblotting shows a protein as a band on a membrane.)

Test [2] has as its system Hh pathway (Gli-luciferase) provoked by Gli2. Briefly: Dual luciferase reporter assay, Hh activity initiated by ectopic Gli2-HA in light II cells. The format is cell-based. The text has this:
(§2) The TCF/LEF luciferase reporter plasmid, NF-κB luciferase reporter plasmid, and TK-Renilla luciferase plasmid were purchased from Promega (Madison, WI, USA). Smo plasmid was purchased from Origene (Rockville, MD, USA). The Smo mutant plasmids were generated from wild type Smo plasmid using QuickChange Site-Directed Mutagenesis kit from Agilent (Santa Clara, CA, USA) and confirmed by sequencing. Information on Smo mutants plasmids is provided in Supplementary data 2. The Gli1 plasmid and Gli2-HA plasmid were obtained from Addgene (Cambridge, MA, USA). Transient transfections were performed by Lipofectamine 2000 reagent from Invitrogen (Grand Island, NY, USA) according to the manufacturer's instructions.
(§3) Cells seeded in 96-well plates were treated with various treatments as indicated. The luciferase activity in the cell lysates was measured using Dual-Luciferase Reporter Assay System (Promega, Madison, WI, USA) according to the manufacturer's instructions in a luminometer (Molecular Devices, Sunnyvale, CA). The firefly luciferase values were normalized to Renilla values.

Test [3] deals with Hh pathway (Gli-luciferase) provoked by Smo WT / Smo mutants. Briefly: Dual luciferase reporter assay, Hh activity induced by ectopic Smo WT or Smo mutants in light II cells. The test is classed as cell-based. Conditions: for IC50: 36 h.
Description: as §2, §3

A further test has as its system Gli1. Briefly: Western blot of Gli1 in light II cells. The test is classed as cell-based. Conditions: 1 µM. The method, then:
as §1

This note sets out measurements from article PMC9691367, “The PROTAC selectively degrading Bcl-xL represents a novel Hedgehog pathway inhibitor with capacity of combating resistance to Smoothened inhibitors while sparing bone growth” (Theranostics, 2022).

Where two headings read alike, the source gives them in different places.

T2 sequence (Q64373 whole entry): as the sequence (Q07817 whole entry, species assumed) above, with G40E, S43A, M45R, A168S, E193D counted along it

Consider `CC1(C)CCC(c2ccc(Cl)cc2)=C(CN2CCN(c3ccc(C(=O)NS(=O)(=O)c4ccc(NCCCN5CCN(CCCC#Cc6cccc7c6CN(C6CCC(=O)NC6=O)C7=O)CC5)c(S(=O)(=O)C(F)(F)F)c4)cc3)CC2)C1` (stereo not shown) [SIAIS361034], for which the “NF-κB luciferase activity activated by TNF-α” value with NF-κB signaling pathway is recorded as “no inhibitory activity”. Also, the “Ternary complex formation with Bcl-xL and CRBN E3 ligase” value at Bcl-xL/CRBN is recorded as “could form a stable ternary complex”. In addition, the “hair growth during depilation-induced hair regeneration” value in test [1] (male C57BL/6J mice, administered after 4 days of depilation) is “significantly retarded hair growth”. In addition, in test [1] (skin harvested 6 h after the last dosage, RT-qPCR), the “Hh activity in skin (Gli1 mRNA)” value is “suppressed the Hh activity”. For the same compound, the “Gli1 and Bcl-xL protein levels in skin tissues” value in test [1] (skin harvested 6 h after the last dosage, western blot) was “suppressed the expression of Gli1 and Bcl-xL”. For the same compound, in the test with Bcl-2 and Mcl-1, the “levels of Bcl-2 and Mcl-1” value was “did not change the levels of Bcl-2 and Mcl-1”. Besides, the “duration of Bcl-xL degradation” value at Bcl-xL (1 µM for 24 h followed by drug withdrawal) is on record as “around 48 h”. Besides, the Bcl-xL degradation entry at Bcl-xL (1 µM, western blot) was “significantly degraded Bcl-xL”. Further, at Bcl-xL (NIH3T3, 24 h, western blot, read-out: maximum degradation (Dmax) of Bcl-xL), the Dmax stood at 88.1%. Further, the “effect on Bcl-xL mRNA levels” value on Bcl-xL (data not shown) is on record as “almost no effect”. For the same compound, in test [2], the “Hh activity evoked by ectopic expression of Gli2” value is “significant potency”. Besides, the IC50 worked out at 85.1 nM in test [2] (ectopic Gli2-HA, 36 h); 188 nM in test [3] (ectopic Smo D473H, read-out: IC50 value, Smo D473H); 147 nM in test [3] (ectopic Smo F460L, read-out: IC50 value, Smo F460L); 117 nM in test [3] (ectopic Smo H231R, read-out: IC50 value, Smo H231R); 40.4 nM in test [3] (ectopic Smo L412F, read-out: IC50 value, Smo L412F); 92.9 nM in test [3] (ectopic Smo W281C, read-out: IC50 value, Smo W281C). Also, the IC50 in test [3] (ectopic Smo W535L, read-out: IC50 value, Smo W535L) came out at 171 nM; in test [3] (ectopic Smo WT, read-out: IC50 value, Smo WT) it was 186 nM. The “IC50 shift between Smo wild-type and mutations” value in test [3] (Gli-luciferase) is on record as “no significant IC50 shift”. Also, the “Hh activity provoked by wild type Smo and Smo mutants” value in test [3] (Smo WT, D473H, H231R, W281C, W535L, L412F, F460L, GDC-0449 10 μM (Figure S3B-D)) is “obviously inhibited”. The Gli1 protein level entry in the test on Gli1 was “decreased Gli1 protein level”.

As a reminder, the Dmax is the largest share of the target that was removed. Usually IC50 stands for the midpoint of a concentration-inhibition curve.
